A short description of test [1]: Liposome import assay (RZ-3 fluorescence). The conditions noted are these: for Zn2+ shuttling into liposomes: external [Zn2+]free 10 μM. The procedure: However, in complete media containing 10% fetal bovine serum (FBS), Zn^2+-binding proteins from the serum (e.g. albumin) necessarily compete for Zn^2+ with any putative MC, making the effective [Zn^2+]free much lower than [Zn^2+]total.
DOPC-liposomes were prepared by film rehydration and extrusion followed by gel filtration and diluted to an OD600=0.06 in buffer. The size distribution of the liposomes was determined by dynamic light scattering (DLS) using a Malvern Zetasizer Nano ZS. Fluorescence measurements were taken on a Horiba Fluoromax-4 spectrofluorimeter in a 5×5 mm quartz cuvette with λex/λem=550/572 nm for RZ-3 and 490/515 nm for calcein. Initial Zn^2+ import/export was quantified by fitting the first 10-30 s of data after each treatment to a line and converted to units of flux using the following Eqn 1:
[formula] where Ji is the initial flux, ΔF/Δt is the slope of the fit line, Fmax is RZ-3 fluorescence in the presence of saturating Zn^2+ and 1% TritonX-100, Fmin is RZ-3 fluorescence in the presence of excess EDTA and 1% TritonX-100, [RZ3] is the concentration of encapsulated RZ-3, and SA/Vol is the surface area to volume ratio calculated assuming hollow spheres of the mean diameter determined by DLS. Intracellular [Zn^2+]free Imaging

The test system of the next test is HEK293 cells. The test is described as follows: Intracellular [Zn2+]free imaging with FluoZin-3-AM, HEK293 cells. The conditions noted are these: for increase of intracellular [Zn2+]free (FZ3-AM fluorescence): HEK293 (non-cancer, p53-WT), complete media, confocal microscopy. In kind it is cell-based. As for the experimental part: (§1) To minimize the potential for Zn^2+ contamination and contributions from poorly defined elements in complete media (e.g. FBS), cells were treated and imaged in Ca^2+ and Mg^2+-free Earle's Balanced Salt Solution supplemented with 10 mM HEPES pH 7.4 (EBSS/H (−)Ca/Mg). Excess ZnCl2 with the Zn^2+ ionophore pyrithione (PYR) was used as a positive control. Excess membrane-permeable Zn^2+ chelator N,N,N′,N′-tetrakis(2-pyridylmethyl)ethane-1,2-diamine (TPEN) was used as a negative control.
To normalize for differential dye loading, cells were then sequentially treated with excess PYR/ZnCl2, imaged, treated with TPEN, and imaged again. PYR/ZnCl2 and TPEN served to saturate and apoize the intracellular FZ3, respectively.
TOV112D or HEK293 cells (40,000 cells/well) were plated on either 8-well BD Falcon chambered culture slides (Corning Life Sciences) or 8-chambered #1.5 Nunc Lab-Tek II chambered coverglasses (Thermo Scientific) treated with poly-L-lysine. After 48 h, cells were washed 2×5 m in serum-free media and incubated with 1 μM FZ3-AM for 40 m at 37° C. Cells were then washed 2×5 m in either EBSS/H (−)Ca/Mg or phenol-red free DMEM+10% FBS containing the indicated treatments for 20 m before imaging. For nuclear colocalization, 1 μg/mL Hoechst 33342 was also included. Cells were imaged using a Zeiss LSM50 META NLO confocal microscope equipped with 37° C. environmental control chamber. FZ3 and Hoechst 33342 were excited at 488 nm (argon laser) and 790 nm (Chameleon Ti:sapphire laser), respectively. To determine the kinetics of fluorescence change, each background-subtracted image in the time-lapse series was integrated in ImageJ and normalized to the integrated fluorescence of the first frame after treatment. For quantification of intracellular [Zn^2+]free, each cell was analyzed in the treated, 50 μM PYR/ZnCl2 (1:1), and 100 μM TPEN images by taking the mean fluorescence of an ROI inside the cell subtracted by an ROI immediately outside the cell measured in ImageJ. The [Zn^2+]free for each cell was then calculated by Eqn 2:
[formula] […] To minimize the effects of outliers the lowest and highest 5% of cells in each series were rejected, and the remaining values averaged to give the value from that experiment. The number of cells analyzed in each trial ranged from 54-163. For nuclear colocalization, treated, PYR/ZnCl2, and TPEN treated images costained with Hoechst 33342 were aligned and each pixel subjected to Eqn. 2 in MATLAB (MathWorks).

The subject of a further test is TOV112D cells. Briefly: Intracellular [Zn2+]free imaging with FluoZin-3-AM, TOV112D cells. The conditions noted are these: ZMC1 alone without ZnCl2, EBSS/H (−)Ca/Mg. It counts as cell-based. As for the experimental part:
as §1
To normalize for differential dye loading, cells were then sequentially treated with excess PYR/ZnCl2, imaged, treated with TPEN, and imaged again. […]
TOV112D or HEK293 cells (40,000 cells/well) were plated on either 8-well BD Falcon chambered culture slides (Corning Life Sciences) or 8-chambered #1.5 Nunc Lab-Tek II chambered coverglasses (Thermo Scientific) treated with poly-L-lysine. […] To determine the kinetics of fluorescence change, each background-subtracted image in the time-lapse series was integrated in ImageJ and normalized to the integrated fluorescence of the first frame after treatment. For quantification of intracellular [Zn^2+]free, each cell was analyzed in the treated, 50 μM PYR/ZnCl2 (1:1), and 100 μM TPEN images by taking the mean fluorescence of an ROI inside the cell subtracted by an ROI immediately outside the cell measured in ImageJ. […]

Test [2] in a line: Liposomal leakage assay (calcein) and liposome size distribution. The procedure: To ensure that the fluorescence results were due to Zn^2+ transport and not to non-specific disruption of liposomal membranes, a liposomal leakage assay was performed using the self-quenching fluorophore calcein. When calcein is encapsulated at concentrations above 4 mM its fluorescence is decreased via self-quenching. Leakage is detected by a fluorescence increase as the dye dilutes and its fluorescence dequenches. […] Disruption of liposomes can also be detected by alteration of their size distribution.
DOPC-liposomes were prepared by film rehydration and extrusion followed by gel filtration and diluted to an OD600=0.06 in buffer. The size distribution of the liposomes was determined by dynamic light scattering (DLS) using a Malvern Zetasizer Nano ZS. Fluorescence measurements were taken on a Horiba Fluoromax-4 spectrofluorimeter in a 5×5 mm quartz cuvette with λex/λem=550/572 nm for RZ-3 and 490/515 nm for calcein. Initial Zn^2+ import/export was quantified by fitting the first 10-30 s of data after each treatment to a line and converted to units of flux using the following Eqn 1: […]

This is an account of results in patent US10604480B2, “(Thio, oxo, and seleno) semicarbazone derivatives and their use for treating cancer” (RUTGERS, THE STATE UNIVERSITY OF NEW JERSEY, priority 2015, dated 2020).

`C/C(=N\NC(=O)N1CCC1)c1ccccn1` [Example A6]: in test [1], the “Zn2+ shuttling into liposomes” value is given as “shuttled Zn^2+ into the liposomes”. The “increase of intracellular [Zn2+]free (FZ3-AM fluorescence)” value (“increase of intracellular [Zn2+]free” for short) in the test on HEK293 cells is “did not”.

On to `O=C(O)CN(CC(=O)O)CC(=O)O` [NTA], for which, in test [1], the “ability to cross liposomal or cellular membranes” value is “cannot cross either liposomal or cellular membranes” and the “Zn2+ shuttling into liposomes” value is reported as “did not”. The “increase of intracellular [Zn2+]free” value with HEK293 cells was “did not”.

Take `C/C(=N\NC(=S)N1CCC1)c1ccccn1` [ZMC1]: the “increase in intracellular [Zn2+]free, ZMC1 alone” value in the test on TOV112D cells is reported as “neither cell type showed an increase”; in the test with HEK293 cells (HEK293, ZMC1 alone without ZnCl2, EBSS/H (−)Ca/Mg) it was “neither cell type showed an increase”. Further, the “ability to cross liposomal or cellular membranes” value in test [1] was “can cross biological membranes both as free drug and drug-Zn^2+ complex”. In addition, the “RZ-3 fluorescence after reversing [Zn2+]free gradient with excess external EDTA” value in test [1] (ZMC1 added after EDTA, export of Zn2+ from liposomes) is recorded as “time dependent decrease”. Moreover, the “calcein fluorescence increase (liposome leakage)” value in test [2] (highest concentrations of ZMC1 and ZnCl2) is given as “a significant fluorescence increase was not detected”. Further, the “size distribution of liposomes” value in test [2] (highest concentrations of ZnCl2 and ZMC1) was “identical to that of untreated liposomes”. Further, in the test with HEK293 cells, the “increase of intracellular [Zn2+]free” value was “increased”.
